Assay [1] deals with T1, hEP4 (Homo sapiens, UniProt P35408). Kind of assay: cAMP assay in human EP4 transfectant (functional assay). Format: cell-based. On the set-up: expressed in transfected cells; host or cells: HEK293 (hEP4 cells), selected with geneticin. The note with it: vs 1 nM PGE2; for IC50: cAMP in HEK293 cells expressing human EP4. How it is done:
cAMP Assay in Human EP4 Transfectant
HEK293 cells expressing human EP4 receptors (hEP4 cells) are maintained in DMEM containing 10% FBS and 500 μg/ml geneticin. For harvesting hEP4 cells, culture medium is aspirated and cells in 75 cm^2 flask are washed with 10 ml of phosphate buffered saline (PBS). Another 10 ml of PBS is added to the cells and incubated for 20 min at room temperature. Human EP4 cells are harvested by pipetting and centrifuged at 300×g for 4 min. Cells are resuspended in DMEM without neutral red at a density of 7×10^5 cells/ml containing 0.2 mM IBMX (PDE inhibitor), 1 nM PGE2 and test compounds in PCR-tubes, and incubated at 37° C. for 10 min. The reaction is stopped by heating at 100° C. for 10 min with thermal cycler. Concentration of cAMP in reaction mixtures is determined with SPA cAMP Kit (Amersham) or cAMP Screen™ (Applied Biosystems) according to the manufacture's instruction. • Reference: Eur. J. Pharmacol. 340 (1997) 227–241
(Changes in cAMP serve as a functional read-out for many G protein-coupled receptors.)

The target of assay [2] is T1, hEP4. Kind of assay: Human EP receptor cell membrane binding assay ([3H]-PGE2). Set-up: expressed in transfected cells; membrane fraction. Particulars: [3H]-PGE2 binding to membranes of human EP4/HEK293 transfectant; acidic and hypotonic buffer condition, MME buffer. An excerpt:
Human EP Receptor Cell Membrane Binding Assay:
Stable Expression of Human EP1, 2, 3 and 4 Receptors in the Human Embryonic Kidney (HEK293) Cell Line
The cDNA clones of human EP1, 2, 3 and 4 receptors are obtained by polymerase chain reaction (PCR) from […] kidney or heart cDNA libraries (Clontech). Human embryonic kidney cells (HEK 293) are stably transfected with expression vectors for human EP1, 2, 3 and 4 receptors in according to the method described in the article; the journal of biological chemistry vol. 271 No. 39, pp 23642–23645.
Preparation of Membrane Fraction:
The EP1, 2, 3 and 4 transfectant are grown in Dulbecco's modified Eagle's medium containing 10% fetal bovine serum, 50 U/ml penicillin, 50 μg/ml streptomycin and 500 μg/ml G418 (selection medium) at 37° C. in a humidified atmosphere of 5% CO2 in air. For the membrane preparation, cells are harvested with phosphate buffered saline (PBS) and centrifuged at 400×g for 5 min. The pellet is suspended with child (4° C.) PBS containing 1/100 volume of protease inhibitor cocktail (SIGMA) (1 mM (4-(2-aminoethyl)-benzenesulfonyl fluoride (AEBSF)), 0.8 μM Aprotinin, 22 μM Leupeptin, 40 μM Bestatin, 15 μM Pepstatin A and 14 μM E-64). Cells are lysed with ultrasonic cell disrupter for 60-sec sonication. Then cell mixtures are centrifuged at 1,000×g for 10 minutes. The supernatant μs centrifuged at 160,000×g for 30 minutes at 4° C. The pellet is resuspended in assay buffer (10 mM 2-morpholinoeth-anesulfonic acid (MES)-KOH, 1 mM etylenediamine tetra-acetic acid (EDTA), 10 mM MgCl2, pH 6.0), and protein concentration is determined by Bradford method (Bio-Rad assay). This membrane preparation is stored at −80° C. freezer until use for binding assay.
[^3H]-PGE2 membrane binding assays are performed in the reaction mixture of 10 mM MES/KOH (pH6.0), 10 mM MgCl2, 1 mM EDTA, 1 nM [^3H]-PGE2 (Amersham TRK431, 164 Ci/mmol), 2˜10 μg of protein from membrane fraction (human EP1, 2, 3 and 4/HEK293 transfectant) and test compound (total volume is 0.1 ml in 96 well polypropylene plate). Incubation is conducted for 60 min at room temperature prior to separation of the bound and free radioligand by rapid filtration through glass fiber filters (Printed Filtermat B, 1205-404, glass fiber, double thickness, size 102×258 mm, Wallac inc., presoaked in 0.2% polyethylenimine). Filters are washed with assay buffer and the residual [^3H]-PGE2 bound to the filter is determined by liquid scintillation counter (1205 Betaplate™). Specific binding is defined as the difference between total binding and nonspecific binding which is determined in the presence of 10 μM PGE2.

T1 sequence (P35408 whole entry): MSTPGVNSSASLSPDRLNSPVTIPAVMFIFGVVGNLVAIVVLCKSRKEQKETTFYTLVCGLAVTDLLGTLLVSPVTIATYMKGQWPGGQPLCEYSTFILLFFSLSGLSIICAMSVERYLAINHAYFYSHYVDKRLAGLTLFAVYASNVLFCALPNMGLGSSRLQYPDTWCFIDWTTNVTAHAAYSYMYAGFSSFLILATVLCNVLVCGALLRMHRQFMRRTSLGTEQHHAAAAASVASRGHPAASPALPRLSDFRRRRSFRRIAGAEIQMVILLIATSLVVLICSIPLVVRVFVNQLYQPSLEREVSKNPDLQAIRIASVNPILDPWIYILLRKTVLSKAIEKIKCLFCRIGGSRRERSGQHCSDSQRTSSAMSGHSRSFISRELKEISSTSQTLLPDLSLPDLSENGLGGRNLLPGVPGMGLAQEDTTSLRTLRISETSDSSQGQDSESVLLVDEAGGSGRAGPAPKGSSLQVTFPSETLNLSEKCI

In the case of `C[C@H](NC(=O)c1cc(Cl)cnc1Oc1cccc(F)c1)c1ccc(C(=O)NS(=O)(=O)c2cccc(Cl)c2)cc1` [Example 79, 5-CHLORO-N-{(1S)-1-[4-({[(3-CHLOROPHENYL)SULFONYL]AMINO}CARBONYL)PHENYL]ETHYL}-2-(3-FLUOROPHENOXY)NICOTINAMIDE], the IC50 in assay [1] turned out to be 21 nM. In addition, the Ki in assay [2] turned out to be 0.7 nM.
The corresponding values for `C[C@H](NC(=O)c1cc(Cl)cnc1Oc1ccc(F)c(F)c1)c1ccc(C(=O)O)cc1` [Example 55, 4-[(1S)-1-({[5-CHLORO-2-(3,4-DIFLUOROPHENOXY)PYRIDIN-3-YL]CARBONYL}AMINO)ETHYL]BENZOIC ACID] are 20 nM and 0.7 nM.
In turn, `O=C(O)c1ccc(CNC(=O)c2cc(C(F)(F)F)cnc2Oc2ccc(F)cc2)cc1` [Example 56, 4-[({[2-(4-FLUOROPHENOXY)-5-(TRIFLUOROMETHYL)PYRIDIN-3-YL]CARBONYL}AMINO)METHYL]BENZOIC ACID] returned an IC50 in assay [1] of 820 nM. In assay [2], this compound came in with a Ki of 20 nM.
The compound `O=C(NCc1ccc(-c2nn[nH]n2)cc1)c1cc(Cl)ccc1Oc1ccc(F)cc1` [Example 76, 5-CHLORO-2-(4-FLUOROPHENOXY)-N-[4-(2H-TETRAZOL-5-YL)BENZYL]BENZAMIDE] registered an IC50 in assay [1] of 100 nM. Also, the Ki in assay [2] turned out to be 1.8 nM.
As to `N#Cc1cnc(Oc2ccc(F)cc2)c(C(=O)NCc2ccc(C(=O)O)cc2)c1` [Example 57, 4-[({[5-CYANO-2-(4-FLUOROPHENOXY)PYRIDIN-3-YL]CARBONYL}AMINO)METHYL]BENZOIC ACID], in assay [1] (@ 5000 nM, read-out: functional assay human EP4 % Inh.), the inhibition at 5 µM was 75%. The same compound displayed an IC50 in assay [1] of 1800 nM. This compound also returned an inhibition constant (Ki) in assay [2] of 92 nM.
With `C[C@H](NC(=O)c1cc(Cl)cnc1Oc1cccc(-c2nccs2)c1)c1ccc(C(=O)O)cc1` [Example 45, 4-{(1S)-[({5-CHLORO-2-[3-(1,3-THIAZOL-2-YL)PHENOXY]PYRIDIN-3-YL}CARBONYL)AMINO]ETHYL}BENZOIC ACID], in assay [1], 28 nM corresponded to half-maximal inhibition (IC50). The affinity in assay [2], expressed as Ki, was 0.3 nM.
The compound `C[C@H](NC(=O)c1cc(Cl)ccc1Cc1cccc(Cl)c1)c1ccc(C(=O)O)cc1` [Example 148, 4-((1S)-1-{[5-CHLORO-2-(3-CHLOROBENZYL)BENZOYL]AMINO}ETHYL)BENZOIC ACID] came in with an IC50 in assay [1] of 3.6 nM. Further, the Ki in assay [2] is 0.7 nM.
In assay [1], `O=C(NCc1ccc(-c2nn[nH]n2)cc1)c1cc(Cl)cnc1Oc1ccc(F)cc1` [Example 74, 5-CHLORO-2-(4-FLUOROPHENOXY)-N-[4-(2H-TETRAZOL-5-YL)BENZYL]NICOTINAMIDE] gave an IC50 of 140 nM. For the same compound, affinity in assay [2] was put at a Ki of 4 nM.
The corresponding values for `C[C@H](NC(=O)c1cc(Cl)ccc1Oc1ccc(F)cc1)c1ccc(C(=O)O)cc1` [Example 68, 4-((1S)-1-{[5-CHLORO-2-(4-FLUOROPHENOXY)BENZOYL]AMINO}ETHYL)BENZOIC ACID] are 43 nM and 2.4 nM.
The corresponding values for `C[C@H](NC(=O)c1cc(Cl)cnc1Oc1cccc(F)c1)c1ccc(C(=O)O)cc1` [Example 48, 4-[(1S)-1-({[5-CHLORO-2-(3-FLUOROPHENOXY)PYRIDIN-3-YL]CARBONYL}AMINO)ETHYL]BENZOIC ACID] are 19 nM and 1 nM.

As a reminder, the IC50 is the point on the concentration scale where inhibition reaches its midpoint. A higher IC50 goes with weaker potency in that assay. For orientation: Ki means the dissociation constant of the complex between target and ligand, obtained from inhibition or displacement. A high value points to lower affinity.

The values above are taken from patent publication US7238714B2, “Aryl or heteroaryl amide compounds” (Pfizer Japan, Inc., priority 2003, dated 2007).
